Measured values published in patent US8959984B2, “Proteome-wide quantification of small molecule binding to cellular target proteins” (priority 2007, dated 2015).
Read-outs that look alike come from different tables or passages of the source.

What was measured:
CK1e (CSNK1E) = CK1e (CSNK1E) (Homo sapiens, UniProt P49674); experiment: binding to AX14596 beads (HeLa lysate, SILAC MS); design: endogenous in cells; host or cells: HeLa S3
Description: (§1) Differentially SILAC-encoded cell lysates were either incubated with the inhibitor beads displaying immobilized AX14596 or control resin devoid of ligand. In parallel, the supernatant from the first binding step was subjected to a second incubation with the AX14596 resin (FIG. 4). The resulting three elution fractions were combined, resolved by gel electrophoresis, proteolytically digested and the relative abundance of the retained proteins quantified. Proteins showing considerable binding to the control resin were identified as non-specific interactors and therefore not considered further. […] These target-specific ratios were similar in “label switch” experiments (FIGS. 6a and 6c). The binding equilibrium was determined in parallel control SILAC experiments as well as the excess of the immobilized compound over its cellular targets, the excess preferably being a molar excess (FIG. 7 and FIG. 8).
(§2) Cysteine carbamidomethylation was set as a fixed modification and N-acetyl protein and oxidized methionine were allowed as variable modifications. Spectra that were determined to result from heavy labeled peptides in the pre-search detection of SILAC partners by MaxQuant were searched with the fixed modifications Lys^4, Lys^8, Arg^6 and Arg^10, whereas MS/MS spectra for which no SILAC state could be assigned before database searching were searched with Lys^4, Lys^8, Arg^6 and Arg^10 as variable modifications. The mass tolerance was set to 5 ppm for monoisotopic precursor ions and to 0.5 Da for MS/MS peaks. The minimum peptide length was set to 6 amino acids and up to three missed cleavages and three isotopically labeled amino acids were permitted per peptide. The accepted false discovery rate (FDR) was 1% for the proteins and peptides. The cut-off for the posterior error probability (PEP) of peptides was set to 10%. Peptide PEPs were determined by generating Mascot score and peptide-length-dependent histograms for both the forward and the reverse hits and then deriving the probability of a false identification for a given top-scoring peptide using Bayes' theorem. The PEPs of peptides belonging to the same proteins were then multiplied. Each peptide sequence was considered only once with the lowest PEP determined in case of multiple sequencing of the same isotopic pattern or of peptide species with different SILAC, charge or modification states. Proteins were then sorted according to their products of their peptide PEPs and included until a FDR of 1% was reached according to the fraction of reverse proteins contained in the protein list. In addition to the FDR threshold applied for protein identification, proteins were only included when they were identified with at least two peptides (of which one was required to be unique for the protein) and quantified if at least on quantifiable SILAC pair was associated with them. Outliers were not removed as protein ratios were calculated as the median instead of the average of all peptide ratios. For peptides shared among different identified proteins, SILAC ratios were only considered for the ratio of the protein identified with the highest number of unique peptides. Protein ratios for the different in vitro association experiments were corrected for the initial SILAC pooling ratio, which was determined from the median of protein ratios in pooled SILAC-encoded cell extracts.

CaMK2d (CAMK2D) = CaMK2d (CAMK2D) (Homo sapiens, UniProt Q13557); experiment: binding to AX14596 beads (HeLa lysate, SILAC MS); design: endogenous in cells; host or cells: HeLa S3
Description: as §1, §2

MNK1 (MKNK1) = MNK1 (MKNK1) (Homo sapiens, UniProt Q9BUB5); experiment: binding to AX14596 beads (HeLa lysate, SILAC MS); design: endogenous in cells; host or cells: HeLa S3
Description: as §1, §2

NAMPT = NAMPT (Homo sapiens, UniProt P43490); experiment: binding to AX14596 beads (HeLa lysate, SILAC MS); design: endogenous in cells; host or cells: HeLa S3
Description: as §1, §2

RPL27A = RPL27A (Homo sapiens, UniProt P46776); experiment: binding to AX14596 beads (HeLa lysate, SILAC MS); design: endogenous in cells; host or cells: HeLa S3
Description: as §1, §2

RPL7 = RPL7 (Homo sapiens, UniProt P18124); experiment: binding to AX14596 beads (HeLa lysate, SILAC MS); design: endogenous in cells; host or cells: HeLa S3
Description: as §1, §2

RPL7A = RPL7A (Homo sapiens, UniProt P62424); experiment: binding to AX14596 beads (HeLa lysate, SILAC MS); design: endogenous in cells; host or cells: HeLa S3
Description: as §1, §2

SNRPG = SNRPG (Homo sapiens, UniProt P62308); experiment: binding to AX14596 beads (HeLa lysate, SILAC MS); design: endogenous in cells; host or cells: HeLa S3
Description: as §1, §2

DYRK1A = target: T1, DYRK1A (Homo sapiens, UniProt Q13627); experiment: binding to immobilized V16742 (IVA1/IVA2, HeLa lysate, MS)
T1 construct: endogenous in cells; host or cells: HeLa S3

YES = YES (Homo sapiens, UniProt P07947); experiment: as above
YES, sequence (P07947 whole entry): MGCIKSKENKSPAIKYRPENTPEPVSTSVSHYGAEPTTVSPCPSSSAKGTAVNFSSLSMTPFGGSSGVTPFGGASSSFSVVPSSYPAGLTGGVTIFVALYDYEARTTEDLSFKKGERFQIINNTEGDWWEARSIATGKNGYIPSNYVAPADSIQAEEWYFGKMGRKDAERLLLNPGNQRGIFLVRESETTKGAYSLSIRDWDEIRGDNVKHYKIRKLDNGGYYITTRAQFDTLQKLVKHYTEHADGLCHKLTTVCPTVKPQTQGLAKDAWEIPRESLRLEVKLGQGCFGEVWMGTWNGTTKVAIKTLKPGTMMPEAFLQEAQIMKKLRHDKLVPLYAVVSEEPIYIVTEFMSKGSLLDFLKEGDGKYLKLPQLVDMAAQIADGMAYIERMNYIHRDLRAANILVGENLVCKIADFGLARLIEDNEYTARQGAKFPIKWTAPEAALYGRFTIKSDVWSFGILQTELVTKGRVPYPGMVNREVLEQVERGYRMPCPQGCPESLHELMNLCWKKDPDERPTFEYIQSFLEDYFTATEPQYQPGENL

MNK1 (MKNK1), sequence (Q9BUB5 whole entry): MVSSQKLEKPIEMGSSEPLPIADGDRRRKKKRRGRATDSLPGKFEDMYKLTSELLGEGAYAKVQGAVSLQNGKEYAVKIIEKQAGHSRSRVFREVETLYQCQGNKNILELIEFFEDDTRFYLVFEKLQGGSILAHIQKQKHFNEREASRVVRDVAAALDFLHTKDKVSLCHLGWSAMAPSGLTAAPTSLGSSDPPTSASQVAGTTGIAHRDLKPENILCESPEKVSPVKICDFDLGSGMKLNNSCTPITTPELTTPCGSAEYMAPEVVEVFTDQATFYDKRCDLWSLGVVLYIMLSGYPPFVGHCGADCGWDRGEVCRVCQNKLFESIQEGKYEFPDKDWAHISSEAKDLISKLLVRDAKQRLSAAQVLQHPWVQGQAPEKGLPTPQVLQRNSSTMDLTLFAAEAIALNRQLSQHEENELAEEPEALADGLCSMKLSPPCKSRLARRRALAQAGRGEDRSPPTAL
CaMK2d (CAMK2D), sequence (Q13557 whole entry): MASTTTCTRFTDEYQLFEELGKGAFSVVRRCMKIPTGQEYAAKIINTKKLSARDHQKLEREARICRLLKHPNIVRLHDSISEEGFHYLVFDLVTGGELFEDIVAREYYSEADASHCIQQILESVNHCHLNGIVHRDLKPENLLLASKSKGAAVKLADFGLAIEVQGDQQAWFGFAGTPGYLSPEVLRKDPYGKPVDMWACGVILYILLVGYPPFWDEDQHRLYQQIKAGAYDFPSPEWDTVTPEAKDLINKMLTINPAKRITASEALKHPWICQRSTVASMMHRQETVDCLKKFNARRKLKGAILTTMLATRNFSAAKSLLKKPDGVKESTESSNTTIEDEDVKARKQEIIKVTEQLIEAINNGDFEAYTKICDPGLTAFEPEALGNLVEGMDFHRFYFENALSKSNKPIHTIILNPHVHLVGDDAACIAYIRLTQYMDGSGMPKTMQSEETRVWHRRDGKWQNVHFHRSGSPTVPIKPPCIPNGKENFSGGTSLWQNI
NAMPT, sequence (P43490 whole entry): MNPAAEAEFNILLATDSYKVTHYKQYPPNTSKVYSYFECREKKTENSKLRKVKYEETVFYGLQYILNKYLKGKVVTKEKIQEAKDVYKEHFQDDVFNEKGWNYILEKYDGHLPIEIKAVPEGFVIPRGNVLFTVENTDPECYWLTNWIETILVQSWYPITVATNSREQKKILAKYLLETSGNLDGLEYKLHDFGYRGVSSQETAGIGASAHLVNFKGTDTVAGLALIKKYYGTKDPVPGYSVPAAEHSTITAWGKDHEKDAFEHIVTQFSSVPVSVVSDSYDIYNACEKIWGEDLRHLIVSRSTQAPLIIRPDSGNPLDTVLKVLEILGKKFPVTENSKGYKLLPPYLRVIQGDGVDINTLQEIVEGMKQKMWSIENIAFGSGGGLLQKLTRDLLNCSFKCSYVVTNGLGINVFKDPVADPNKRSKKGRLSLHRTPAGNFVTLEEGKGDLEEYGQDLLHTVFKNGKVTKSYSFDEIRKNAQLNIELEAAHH
CK1e (CSNK1E), sequence (P49674 whole entry): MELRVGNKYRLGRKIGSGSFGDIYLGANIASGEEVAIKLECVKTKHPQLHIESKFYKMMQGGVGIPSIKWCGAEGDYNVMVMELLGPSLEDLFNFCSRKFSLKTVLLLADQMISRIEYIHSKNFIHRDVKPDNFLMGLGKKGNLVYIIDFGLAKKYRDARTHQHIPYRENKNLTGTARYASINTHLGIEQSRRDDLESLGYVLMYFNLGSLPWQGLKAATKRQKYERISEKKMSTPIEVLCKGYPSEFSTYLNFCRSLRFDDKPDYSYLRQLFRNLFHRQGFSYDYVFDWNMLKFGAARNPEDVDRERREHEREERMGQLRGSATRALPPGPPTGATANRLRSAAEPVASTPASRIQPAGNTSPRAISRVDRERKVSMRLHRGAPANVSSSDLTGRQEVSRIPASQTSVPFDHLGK
SNRPG, sequence (P62306 whole entry): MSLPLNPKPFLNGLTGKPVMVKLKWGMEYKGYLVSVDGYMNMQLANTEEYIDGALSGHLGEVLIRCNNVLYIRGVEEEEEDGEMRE
SNRPG, sequence (P62304 whole entry, further chain): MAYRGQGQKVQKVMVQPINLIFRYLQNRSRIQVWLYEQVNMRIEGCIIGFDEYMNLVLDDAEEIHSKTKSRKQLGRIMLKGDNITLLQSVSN
SNRPG, sequence (P62308 whole entry): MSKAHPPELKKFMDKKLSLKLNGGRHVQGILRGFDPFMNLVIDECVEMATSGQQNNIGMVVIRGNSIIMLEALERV

With `COc1cc2ncnc(Nc3ccc(F)c(Cl)c3)c2cc1OCCCN` [AX14596] the Ki (CK1e (CSNK1E)) was 4080 µM, the “r (3 mg/1 mg lysate)” value (CK1e (CSNK1E)) was 2.87 and the “r (5 h/2.5 h inc. time)” value (CK1e (CSNK1E)) was 1.23. For the same compound, the “rAVERAGE (2. inc/1. inc)” value (CK1e (CSNK1E)) was 0.98, the “rAVERAGE (control/1. inc)” value (CK1e (CSNK1E)) was 0.09 and the Ki (CaMK2d (CAMK2D)) was 87.2 µM. The “r (3 mg/1 mg lysate)” value (CaMK2d (CAMK2D)) was 2.39, the “r (5 h/2.5 h inc. time)” value (CaMK2d (CAMK2D)) was 1.13 and the “rAVERAGE (2. inc/1. inc)” value (CaMK2d (CAMK2D)) was 0.47. For the same compound, the “rAVERAGE (control/1. inc)” value (CaMK2d (CAMK2D)) was 0.07, the Ki (MNK1 (MKNK1)) was 922 µM and the “r (3 mg/1 mg lysate)” value (MNK1 (MKNK1)) was 2.94. The “r (5 h/2.5 h inc. time)” value (MNK1 (MKNK1)) was 1.05, the “rAVERAGE (2. inc/1. inc)” value (MNK1 (MKNK1)) was 0.90 and the “rAVERAGE (control/1. inc)” value (MNK1 (MKNK1)) was 0.04. For the same compound, the Ki (NAMPT) was 41.2 µM, the “r (3 mg/1 mg lysate)” value (NAMPT) was 7.48 and the “r (5 h/2.5 h inc. time)” value (NAMPT) was 0.39. The “rAVERAGE (2. inc/1. inc)” value (NAMPT) was 0.29, the “rAVERAGE (control/1. inc)” value (NAMPT) was 0.04 and the Ki (RPL27A) was 2930 µM. For the same compound, the “r (3 mg/1 mg lysate)” value (RPL27A) was 1.75, the “r (5 h/2.5 h inc. time)” value (RPL27A) was 1.12 and the “rAVERAGE (2. inc/1. inc)” value (RPL27A) was 0.97. For the same compound, the “rAVERAGE (control/1. inc)” value (RPL27A) was 0.06, the Ki (RPL7) was 2310 µM and the “r (3 mg/1 mg lysate)” value (RPL7) was 1.82. For the same compound, the “rAVERAGE (2. inc/1. inc)” value (RPL7) was 0.96, the “rAVERAGE (control/1. inc)” value (RPL7) was 0.19 and the Ki (RPL7A) was 2100 µM. For the same compound, the “r (3 mg/1 mg lysate)” value (RPL7A) was 5.23, the “rAVERAGE (2. inc/1. inc)” value (RPL7A) was 0.95 and the “rAVERAGE (control/1. inc)” value (RPL7A) was 0.17. For the same compound, the Ki (SNRPG) was 87.6 µM, the “r (3 mg/1 mg lysate)” value (SNRPG) was 2.54 and the “rAVERAGE (2. inc/1. inc)” value (SNRPG) was 0.47. For the same compound, the “rAVERAGE (control/1. inc)” value (SNRPG) was 0.16.
With `CC(C)n1c(=O)ccc2cnc(Nc3ccc(OCCN)cc3)nc21` [V16742] the “Percent bound at various 16742 conc” value (DYRK1A; Experiment 1, 1.87 μM 16742) was 5.75%, the “Percent bound at various 16742 conc” value (DYRK1A; Experiment 1, 8.74 μM 16742) was 14.82% and the “Percent bound at various 16742 conc” value (DYRK1A; Experiment 1, 52 μM 16742) was 52.16%. For the same compound, the Kd (DYRK1A; Experiment 1, read-out: Kd) was 47.8 µM, the “Percent bound at various 16742 conc” value (DYRK1A; Experiment 2, 1.87 μM 16742) was 1.08% and the “Percent bound at various 16742 conc” value (DYRK1A; Experiment 2, 8.74 μM 16742) was 3.76%. For the same compound, the “Percent bound at various 16742 conc” value (DYRK1A; Experiment 2, 52 μM 16742) was 28.11%, the Kd (DYRK1A; Experiment 2, read-out: Kd) was 137 µM and the Kd (DYRK1A; average of two experiments, read-out: Kd Avg) was 92.5 µM.
For `CC(C)n1c(=O)ccc2cnc(Nc3ccc(OCCN)cc3)nc21` [compound 16742], the “Percent bound at 1.87 μM 16742 conc” value (YES; EXPERIMENT 1) was 4.07%, the “Percent bound at 8.74 μM 16742 conc” value (YES; EXPERIMENT 1) was 25.17% and the “Percent bound at 52 μM 16742 conc” value (YES; EXPERIMENT 1) was 62.69%. For the same compound, the Kd (YES; EXPERIMENT 1, read-out: Kd) was 29.3 µM, the “Percent bound at 1.87 μM 16742 conc” value (YES; EXPERIMENT 2) was 3.61% and the “Percent bound at 8.74 μM 16742 conc” value (YES; EXPERIMENT 2) was 15.31%. The “Percent bound at 52 μM 16742 conc” value (YES; EXPERIMENT 2) was 54.74%, the Kd (YES; EXPERIMENT 2, read-out: Kd) was 44.3 µM and the Kd (YES; read-out: Kd Avg) was 36.8 µM.
